Source: publication PMC2812926 (Journal of medicinal chemistry, 2008)

How the values were obtained:
HIV-1 protease = HIV-1 protease (Human immunodeficiency virus type 1 group M subtype B, UniProt P04585); experiment: HIV-1 protease enzyme inhibitory assay; format: biochemical
[1] = tested on: HIV-1ERS104pre (wild-type); experiment: Antiviral assay in PHA-PBMC, p24 Gag production, HIV-1ERS104pre; format: cell-based; conditions: PBMC versus MT-2 cells
HIV-1MDR-TM = format: cell-based; conditions: PHA-PBMC
HIV-1MDR-MM = format: cell-based; conditions: PHA-PBMC
HIV-1MDR-JSL = format: cell-based; conditions: PHA-PBMC
HIV-1MDR-B = format: cell-based; conditions: PHA-PBMC
MDR/C = format: cell-based, HIV-1; conditions: PHA-PBMC
HIV-1MDR-G = format: cell-based; conditions: PHA-PBMC
MDR/A = format: cell-based, HIV-1; conditions: PHA-PBMC

SMILES | potency change compared to 3i (enzyme Ki) (HIV-1 protease) | number in parentheses: fold change of IC50 versus ERS104pre (wild-type) (HIV-1MDR-TM) | number in parentheses: fold change of IC50 versus ERS104pre (wild-type) (HIV-1MDR-MM) | number in parentheses: fold change of IC50 versus ERS104pre (wild-type) (HIV-1MDR-JSL) | number in parentheses: fold change of IC50 versus ERS104pre (wild-type) (HIV-1MDR-B) | number in parentheses: fold change of IC50 versus ERS104pre (wild-type) (MDR/C) | number in parentheses: fold change of IC50 versus ERS104pre (wild-type) (HIV-1MDR-G) | number in parentheses: fold change of IC50 versus ERS104pre (wild-type) (MDR/A) | further results
COc1ccc(S(=O)(=O)N(CC(C)C)C[C@@H](O)[C@H](Cc2ccccc2)NC(=O)OC2COCCOCOCCOC2)cc1 [Inhibitor 3k, (1S,2R)-{1-Benzyl-2-hydroxy-3-[isobutyl(4-methoxybenzenesulfonyl)amino]propyl}carbamic acid 3,6,8,11-tetraoxacyclododecan-1-yl ester] | more than 2 fold | – | – | – | – | – | – | – | potency enhancement compared to inhibitor 3j (enzyme Ki) (HIV-1 protease; compared to 3j): 5 fold
COc1ccc(S(=O)(=O)N(CC(C)C)C[C@@H](O)[C@H](Cc2ccccc2)NC(=O)OC2COCCN(C)CCOC2)cc1 [Inhibitor 3m, (1S,2R)-{1-Benzyl-2-hydroxy-3-[isobutyl(4-methoxybenzenesulfonyl)amino]propyl}carbamic acid N-methyl-1,7-dioxa-4-azocyclodecan-9-yl ester] | no change in inhibitory activity | – | – | – | – | – | – | – | –
COc1ccc(S(=O)(=O)N(CC(C)C)C[C@@H](O)[C@H](Cc2ccccc2)NC(=O)O[C@@H]2CCOCOC2)cc1 [Inhibitor 3d, (1S,2R)-{1-Benzyl-2-hydroxy-3-[isobutyl(4-methoxybenzenesulfonyl)amino]propyl}carbamic acid (1R)-3,5-dioxacycloheptan-1-yl ester] | – | – | – | – | – | – | – | – | factor by which values in PBMCs were greater than those with MT-2 cells [1]: about 4
CC(C)(C)NC(=O)[C@@H]1CN(Cc2cccnc2)CCN1C[C@@H](O)C[C@@H](Cc1ccccc1)C(=O)N[C@H]1c2ccccc2C[C@H]1O.O [IDV, Indinavir] | – | > 38 | > 38 | > 38 | > 38 | > 38 | 11 | > 38 | –
COc1ccc(S(=O)(=O)N(CC(C)C)C[C@@H](O)[C@H](Cc2ccccc2)NC(=O)OC2COCCS(=O)(=O)CCOC2)cc1 [Inhibitor 3l, (1S,2R)-{1-Benzyl-2-hydroxy-3-[isobutyl(4-methoxybenzenesulfonyl)amino]propyl}carbamic acid 3,9-dioxa-6-thiacyclodecan-1-yl 6,6-dioxide ester] | 9 fold | – | – | – | – | – | – | – | –
COc1ccc(S(=O)(=O)N(CC(C)C)C[C@@H](O)[C@H](Cc2ccccc2)NC(=O)O[C@H]2CCCOCC2)cc1 [Inhibitor 3f, (1S,2R)-{1-Benzyl-2-hydroxy-3-[isobutyl(4-methoxybenzenesulfonyl)amino]propyl}carbamic acid (S)-oxepan-4-yl ester] | – | – | – | – | – | – | – | – | reduction in enzymatic inhibitory potency with respect to 3d (HIV-1 protease): ~30 fold
CC(C)c1nc(CN(C)C(=O)N[C@H](C(=O)N[C@@H](Cc2ccccc2)C[C@H](O)[C@H](Cc2ccccc2)NC(=O)OCc2cncs2)C(C)C)cs1 [RTV] | – | > 29 | > 29 | > 29 | > 29 | > 29 | > 29 | > 29 | –
COc1ccc(S(=O)(=O)N(CC(C)C)C[C@@H](O)[C@H](Cc2ccccc2)NC(=O)O[C@@H]2CCCCOC2)cc1 [Inhibitor 3e, (1S,2R)-{1-Benzyl-2-hydroxy-3-[isobutyl(4-methoxybenzenesulfonyl)amino]propyl}carbamic acid (R)-oxepan-3-yl ester] | – | – | – | – | – | – | – | – | reduction in enzymatic inhibitory potency with respect to 3d (HIV-1 protease): ~30 fold
COc1ccc(S(=O)(=O)N(CC(C)C)C[C@@H](O)[C@H](Cc2ccccc2)NC(=O)OC2COCOC2)cc1 [Inhibitor 3h, (1S,2R)-{1-Benzyl-2-hydroxy-3-[isobutyl(4-methoxybenzenesulfonyl)amino]propyl}carbamic acid 1,3-dioxan-5-yl ester] | – | 10 | 5 | 55 | 38 | 27 | 50 | 2 | –
